Reference: patent US8637544B2, “Neurite formation promoter” (Senju Pharmaceutical Co., Ltd., priority 2007, dated 2014)

Assays:
[1] = tested on: cultured rabbit trigeminal nerve cells; experiment: Promoting effect on neuritogenesis in cultured rabbit trigeminal nerve cells (Test Example 1); format: cell-based; settings: 0.1 nM (0.026 ng/mL), 48 h culture after addition; mean±SD, N=5; control 29.5±8.7%
Description: (§1) Japanese White rabbits (4 days old, male) purchased from Oriental Yeast Co., Ltd. were used.
N-(1-acetylpiperidin-4-yl)-4-fluorobenzamide (hereinafter referred to as Compound A) was used.
Rabbit trigeminal nerve cells were isolated according to the report of Chan et al. (Kwan Y. Chan and Richard H. Haschke. Exp. Eye Res. 41: 687-699, 1985). Specifically, a rabbit underwent cardiac perfusion with physiological saline under anesthesia with pentobarbital sodium injection (Dainippon Sumitomo Pharma), after which the trigeminal ganglia thereof were cut out. […]
After the 48 hours of cultivation following the addition, the rabbit trigeminal nerve cells were immersed and fixed in 10% neutrally buffered formaldehyde solution at room temperature for 20 minutes. The specimens fixed were fluorescently stained using the anti-neurofilament 200 antibody (Sigma-Aldrich), which specifically recognizes neurofilaments constituting nerve cell bodies and neurites, and the cells stained were examined under a fluorescence microscope (Olympus). Stained cell were incorporated as images from the fluorescence microscope into a computer.
To evaluate the degree of neuritogenesis in the cultured rabbit trigeminal nerve cells, cell body diameters and neurite lengths were measured on the computer-captured stained cell images using image analysis software (Image-Pro Plus Ver. 4.5.1, Media Cybernetics). […]

[2] = tested on: rabbit retinal nerve cells; experiment: Promoting effect on neuritogenesis in rabbit retinal cells (Test Example 2); format: cell-based; settings: 0.1 nM (0.026 ng/mL), 48 h culture after addition; FIG. 2
Procedure: as §1
A rabbit underwent cardiac perfusion with physiological saline under anesthesia with pentobarbital sodium injection (Dainippon Sumitomo Pharma), after which the eyeballs were extirpated and the retinas were isolated. The retinas isolated were placed in a papain solution (1 mg/mL, Sigma-Aldrich Japan K.K.) suspended in Hanks' balanced salt solution (HBSS, Invitrogen), and subjected to enzymatic digestion at 37° C. for 30 minutes. Thereafter, Leibovitz's L-15 Medium (L-15, Invitrogen) was used to prepare reagents. After the suspension was allowed to stand, the supernatant was discarded, 3 mL of a trypsin inhibitor solution (2 mg/mL trypsin inhibitor, 0.004% DNase and 1 mg/mL Bovine Serum Albumin dissolved in L-15, pH 7.4) was added, and pipetting was performed. After the solution was allowed to stand, the supernatant was discarded, another 3 mL of the trypsin inhibitor solution was added, pipetting was performed, and this operation was once again repeated; centrifugation was performed at 120×g for 5 minutes, and the supernatant was removed. […]

[3] = tested on: cultured rabbit trigeminal nerve cells; experiment: Promoting effect on neuritogenesis in cultured rabbit trigeminal nerve cells, concentration series (Test Example 3); format: cell-based; settings: for Ratio (%) of neuritogenesis cells: 48 h, mean±SD, control 30.4 ± 19.5
Description: as §1
Rabbit trigeminal nerve cells were isolated according to the report by Chan et al. (Kwan Y. Chan and Richard H. Haschke. Exp. Eye Res. 41: 687-699, 1985). Specifically, a rabbit underwent cardiac perfusion with physiological saline under anesthesia with pentobarbital sodium injection (Dainippon Sumitomo Pharma), after which the trigeminal ganglia were cut out. The trigeminal ganglia cut out were washed with Hanks' balanced salt solution (HBSS, Invitrogen), and thereafter treated with 300 μg/mL collagenase-dispase (Roche) at 37° C. for 40 minutes; centrifugation was performed at 120×g for 5 minutes, and the cells were collected. The enzyme reaction was stopped with Neurobasal (registered trademark, Invitrogen) supplemented with EDTA at a final concentration of 0.1%, and the cells were suspended in culture medium, after which centrifugation was performed at 120×g for 5 minutes, and trigeminal nerve cells were prepared.
The cells prepared were seeded in a 8-well chamber slide coated with polylysine/laminin (Falcon) at about 3×10^3 cells/well; after the seeding, the cells were cultured for 24 hours. After the 24 hours, each of Compound A (final concentration: 0.001 nM (0.00026 ng/mL), 0.1 nM (0.026 ng/ml), 10 nM (2.6 ng/mL), 1000 nM (260 ng/mL)) and NGF (final concentration 1 μg/ml) as a positive control or PBS as a control, was added to the culture medium. After the addition, the cells were further cultured for 48 hours.
The culture medium used was a Neurobasal containing the B27 supplement (Invitrogen) (final concentration 2% (v/v)), L-glutamine (Invitrogen) (final concentration 1 mM) and cytosine-1-β-D(+)arabinofuranoside (final concentration 10 μM). Culturing conditions were set at a carbon dioxide concentration of 5%, an air concentration of 95%, a humidity of 100%, and a temperature of 37° C.
After the 48 hours of cultivation, the rabbit trigeminal nerve cells were immersed and fixed in 10% neutrally buffered formaldehyde solution at room temperature for 20 minutes. The specimens fixed were fluorescently stained using the anti-neurofilament 200 antibody (Sigma-Aldrich), which specifically recognizes neurofilaments constituting nerve cell bodies and neurites, and the cells stained were examined under a fluorescence microscope (Olympus). Stained cells were incorporated as images from the fluorescence microscope into a computer.
To evaluate the degree of neuritogenesis in the cultured rabbit trigeminal nerve cells, cell body diameters and neurite lengths were measured on the computer-captured stained cell images using image analysis software (Image-Pro Plus Ver. 4.5.1, Media Cybernetics). Cells having a neurite with a length of not less than twice the diameter of the cell body were regarded as neuritogenesis cells, and the ratio (%) of the cells to the total cell count was calculated (Otori Y, Wei J Y, Barnstable C J. Invest. Opthalmol V is Sci (1998) 39, 972-981).

[4] = tested on: corneal sensitivity after corneal flap creation; experiment: Improving effect on rabbit corneal hyposensitivity after corneal flap creation (Test Example 4); format: in vivo; settings: 1 nM ophthalmic solution, instillation 50 μL four times a day for 6 weeks
Procedure: Japanese White rabbits weighing 2.5 to 3.0 kg purchased from KITAYAMA LABES were used. From arrival to the day of test completion, the animals were kept in a breeding room set at a room temperature of 23±3° C., a humidity of 55±10%, and 12-hour lighting (lighted on at 8:00, lighted off at 20:00) at one animal per cage. Each animal was fed up to 100 to 120 g of a solid food (Labo R Stock, Nosan Corporation) a day, and had free access to tap water.
Compound A was used as a test substance. The test substance was dissolved in the base shown below to obtain a concentration of 1 nM (0.00000026%) to yield an ophthalmic solution. For a control group, the following base, free of the test substance, was administered by instillation.
3. Test Procedures 1) Grouping
On the day before flap creation, the animals were macroscopically examined for the ocular surface and examined for fluorescein-stained spots in the cornea; rabbits with no abnormalities observed therein were selected, and initial values of corneal sensitivity were measured using the Cochet-Bonnet aesthesiometer (manufactured by Luneau). […]
One week, 2 weeks, 4 weeks or 6 weeks after surgery, corneal sensitivity was measured using the Cochet-Bonnet aesthesiometer. […]

CC(=O)N1CCC(NC(=O)c2ccc(F)cc2)CC1 [Compound A, N-(1-acetylpiperidin-4-yl)-4-fluorobenzamide]
ratio of neuritogenesis cells to all cells [1]: 63.3±5.2% | neuritogenesis in retinal nerve cells stained with anti-neurofilament antibody [2]: Remarkable neuritogenesis was observed | Ratio (%) of neuritogenesis cells ([3]; 0.001 nM): 33.6 ± 16.3% | Ratio (%) of neuritogenesis cells ([3]; 0.1 nM, *p<0.05 vs control): 45.9 ± 15.1* % | Ratio (%) of neuritogenesis cells ([3]; 10 nM): 37.2 ± 16.5% | Ratio (%) of neuritogenesis cells ([3]; 1000 nM): 37.0 ± 20.0% | optimum concentration for promoting effect on neuritogenesis in trigeminal nerve cells ([3]; tested at 0.001, 0.1, 10, 1000 nM): 0.1 nM | time when a sense was observed for the first time after corneal flap creation (first measured value of 5 mm filament length or more) ([4]; average, vehicle group 5.5 weeks): 4.1 weeks | recovery from decreased corneal sensitivity after flap creation (Cochet-Bonnet aesthesiometer) ([4]; versus vehicle instillation group, FIG. 3): accelerated recovery from decreased corneal sensitivity after flap creation
